Results taken from ChEMBL document CHEMBL4507281, “Data for DCP probe BI-4394” (2021).

What was measured:
Conditions in all cases: Compound concentration 10.0 uM
[1] = target: 5-hydroxytryptamine receptor 1A (Homo sapiens) (UniProt P08908)
[2] = target: D(4) dopamine receptor (Homo sapiens) (UniProt P21917)
[3] = target: Alpha-1A adrenergic receptor (Homo sapiens) (UniProt P35348)
[4] = target: Alpha-2A adrenergic receptor (Homo sapiens) (UniProt P08913)
[5] = target: T1, Activin receptor type-1B (Homo sapiens) (UniProt P36896)
T1 sequence (whole entry): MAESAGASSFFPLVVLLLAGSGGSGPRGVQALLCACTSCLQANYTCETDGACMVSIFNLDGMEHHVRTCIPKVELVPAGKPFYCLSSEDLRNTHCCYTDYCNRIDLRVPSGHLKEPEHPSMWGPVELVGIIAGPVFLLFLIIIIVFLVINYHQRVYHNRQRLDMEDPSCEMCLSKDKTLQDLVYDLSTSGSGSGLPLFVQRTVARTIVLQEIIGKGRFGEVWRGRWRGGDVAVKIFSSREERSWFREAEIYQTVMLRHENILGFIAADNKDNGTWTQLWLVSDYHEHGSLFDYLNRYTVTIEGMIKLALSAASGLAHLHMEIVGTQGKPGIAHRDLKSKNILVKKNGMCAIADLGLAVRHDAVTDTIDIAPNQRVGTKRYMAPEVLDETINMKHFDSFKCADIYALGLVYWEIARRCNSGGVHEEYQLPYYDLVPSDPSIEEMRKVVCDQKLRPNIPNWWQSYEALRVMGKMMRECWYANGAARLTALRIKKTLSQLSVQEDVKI

[6] = target: RAC-alpha serine/threonine-protein kinase (Homo sapiens) (UniProt P31749)
[7] = target: T2, Serine/threonine-protein kinase Chk1 (Homo sapiens) (UniProt O14757)
T2 sequence (whole entry): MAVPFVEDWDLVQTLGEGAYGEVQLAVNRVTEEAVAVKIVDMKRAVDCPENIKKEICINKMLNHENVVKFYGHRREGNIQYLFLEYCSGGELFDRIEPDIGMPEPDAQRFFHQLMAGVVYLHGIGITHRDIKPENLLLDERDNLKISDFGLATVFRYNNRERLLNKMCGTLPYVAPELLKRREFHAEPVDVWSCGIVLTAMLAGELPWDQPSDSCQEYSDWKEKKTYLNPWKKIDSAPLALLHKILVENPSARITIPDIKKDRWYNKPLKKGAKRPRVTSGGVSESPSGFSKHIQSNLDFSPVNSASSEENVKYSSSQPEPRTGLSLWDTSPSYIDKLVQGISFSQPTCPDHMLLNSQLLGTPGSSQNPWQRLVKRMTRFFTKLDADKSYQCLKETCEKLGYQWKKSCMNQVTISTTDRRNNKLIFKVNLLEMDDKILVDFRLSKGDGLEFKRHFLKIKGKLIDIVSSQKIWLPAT

[8] = target: Dual specificity tyrosine-phosphorylation-regulated kinase 3 (Homo sapiens) (UniProt O43781)
Chain of Dual specificity tyrosine-phosphorylation-regulated kinase 3 (Homo sapiens) (O43781 whole entry): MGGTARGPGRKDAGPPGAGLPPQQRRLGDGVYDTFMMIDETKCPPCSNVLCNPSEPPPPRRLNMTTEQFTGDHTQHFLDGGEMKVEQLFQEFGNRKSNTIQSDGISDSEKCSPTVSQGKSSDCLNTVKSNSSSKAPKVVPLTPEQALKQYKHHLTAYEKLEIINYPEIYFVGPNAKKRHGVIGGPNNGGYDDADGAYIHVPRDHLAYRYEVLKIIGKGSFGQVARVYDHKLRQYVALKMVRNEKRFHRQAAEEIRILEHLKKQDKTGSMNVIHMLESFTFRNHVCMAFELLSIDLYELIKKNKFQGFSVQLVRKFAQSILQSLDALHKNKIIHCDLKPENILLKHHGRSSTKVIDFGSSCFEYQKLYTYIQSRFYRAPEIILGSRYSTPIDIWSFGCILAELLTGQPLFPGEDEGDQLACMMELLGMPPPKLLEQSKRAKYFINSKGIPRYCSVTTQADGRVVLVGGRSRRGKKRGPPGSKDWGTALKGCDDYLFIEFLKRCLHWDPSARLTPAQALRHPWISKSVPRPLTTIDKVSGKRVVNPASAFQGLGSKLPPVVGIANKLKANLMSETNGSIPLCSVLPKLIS

[9] = target: Serine/threonine-protein kinase mTOR (Homo sapiens) (UniProt P42345)
[10] = target: T3, Interleukin-1 receptor-associated kinase 4 (Homo sapiens) (UniProt Q9NWZ3)
T3 sequence (whole entry): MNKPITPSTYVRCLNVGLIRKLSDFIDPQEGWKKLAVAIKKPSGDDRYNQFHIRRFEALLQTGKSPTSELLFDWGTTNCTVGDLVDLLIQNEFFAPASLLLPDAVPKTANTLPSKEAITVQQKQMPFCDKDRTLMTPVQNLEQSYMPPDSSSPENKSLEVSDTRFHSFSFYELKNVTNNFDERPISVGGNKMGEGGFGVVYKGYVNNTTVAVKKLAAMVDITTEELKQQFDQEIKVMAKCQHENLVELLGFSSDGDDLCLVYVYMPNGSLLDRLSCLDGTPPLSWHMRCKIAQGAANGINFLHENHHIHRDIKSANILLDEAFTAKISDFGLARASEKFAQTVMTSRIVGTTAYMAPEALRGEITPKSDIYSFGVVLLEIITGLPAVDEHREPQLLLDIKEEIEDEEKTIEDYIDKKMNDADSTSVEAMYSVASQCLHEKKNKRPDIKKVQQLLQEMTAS

[11] = target: Mast/stem cell growth factor receptor Kit (Homo sapiens) (UniProt P10721)
[12] = target: Mitogen-activated protein kinase 1 (Homo sapiens) (UniProt P28482)
[13] = target: Mitogen-activated protein kinase 14 (Homo sapiens) (UniProt Q16539)
Chain of Mitogen-activated protein kinase 14 (Homo sapiens) (Q16539 whole entry): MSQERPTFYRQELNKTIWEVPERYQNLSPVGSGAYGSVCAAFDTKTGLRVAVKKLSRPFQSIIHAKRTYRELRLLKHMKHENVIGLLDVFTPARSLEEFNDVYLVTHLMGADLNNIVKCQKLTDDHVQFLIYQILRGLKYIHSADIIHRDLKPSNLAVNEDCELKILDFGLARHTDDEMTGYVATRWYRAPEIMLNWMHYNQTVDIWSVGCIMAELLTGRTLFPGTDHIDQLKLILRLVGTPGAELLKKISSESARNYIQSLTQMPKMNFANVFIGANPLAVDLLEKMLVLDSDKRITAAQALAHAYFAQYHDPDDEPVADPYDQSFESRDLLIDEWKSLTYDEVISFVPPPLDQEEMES

[14] = target: Mitogen-activated protein kinase 8 (Homo sapiens) (UniProt P45983)
[15] = target: Hepatocyte growth factor receptor (Homo sapiens) (UniProt P08581)
Chain of Hepatocyte growth factor receptor (Homo sapiens) (P08581 whole entry): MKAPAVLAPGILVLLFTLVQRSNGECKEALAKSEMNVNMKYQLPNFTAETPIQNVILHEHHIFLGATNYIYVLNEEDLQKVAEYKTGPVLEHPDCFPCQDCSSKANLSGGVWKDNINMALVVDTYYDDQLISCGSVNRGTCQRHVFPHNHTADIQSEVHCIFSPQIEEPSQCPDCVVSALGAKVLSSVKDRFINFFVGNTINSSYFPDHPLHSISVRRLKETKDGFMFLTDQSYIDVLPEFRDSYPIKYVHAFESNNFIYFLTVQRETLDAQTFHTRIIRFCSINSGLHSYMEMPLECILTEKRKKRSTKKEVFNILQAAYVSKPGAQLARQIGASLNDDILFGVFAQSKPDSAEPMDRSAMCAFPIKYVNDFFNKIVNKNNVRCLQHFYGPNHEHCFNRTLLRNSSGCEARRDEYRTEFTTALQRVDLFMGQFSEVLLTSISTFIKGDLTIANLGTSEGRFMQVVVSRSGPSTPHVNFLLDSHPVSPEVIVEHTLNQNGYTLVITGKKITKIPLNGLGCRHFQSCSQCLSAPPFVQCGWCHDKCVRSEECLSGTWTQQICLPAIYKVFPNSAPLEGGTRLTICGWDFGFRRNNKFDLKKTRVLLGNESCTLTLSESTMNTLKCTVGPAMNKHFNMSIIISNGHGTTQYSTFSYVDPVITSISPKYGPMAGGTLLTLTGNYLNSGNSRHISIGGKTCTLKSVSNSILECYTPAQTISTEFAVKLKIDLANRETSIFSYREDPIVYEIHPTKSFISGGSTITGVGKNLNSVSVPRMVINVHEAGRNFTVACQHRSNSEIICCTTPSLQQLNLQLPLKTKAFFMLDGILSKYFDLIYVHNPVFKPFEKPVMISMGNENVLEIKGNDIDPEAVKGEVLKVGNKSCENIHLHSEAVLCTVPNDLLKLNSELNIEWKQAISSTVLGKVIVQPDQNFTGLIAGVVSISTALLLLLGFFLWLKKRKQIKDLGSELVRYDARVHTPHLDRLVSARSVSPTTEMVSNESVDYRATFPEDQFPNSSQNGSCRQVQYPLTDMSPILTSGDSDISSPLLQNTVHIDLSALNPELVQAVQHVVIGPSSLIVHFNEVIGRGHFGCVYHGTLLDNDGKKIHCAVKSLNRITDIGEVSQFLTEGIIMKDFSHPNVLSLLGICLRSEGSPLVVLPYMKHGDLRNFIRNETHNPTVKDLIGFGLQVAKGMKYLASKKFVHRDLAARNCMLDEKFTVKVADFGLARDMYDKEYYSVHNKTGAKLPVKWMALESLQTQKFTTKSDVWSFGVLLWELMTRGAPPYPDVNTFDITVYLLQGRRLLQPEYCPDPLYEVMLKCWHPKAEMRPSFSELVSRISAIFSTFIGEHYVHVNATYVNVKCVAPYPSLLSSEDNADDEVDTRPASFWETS

[16] = target: PI3-kinase p110-alpha/p85-alpha (Homo sapiens) (UniProt P27986+P42336)
[17] = target: Serine/threonine-protein kinase pim-1 (Homo sapiens) (UniProt P11309)
Chain of Serine/threonine-protein kinase pim-1 (Homo sapiens) (P11309 whole entry, looked up): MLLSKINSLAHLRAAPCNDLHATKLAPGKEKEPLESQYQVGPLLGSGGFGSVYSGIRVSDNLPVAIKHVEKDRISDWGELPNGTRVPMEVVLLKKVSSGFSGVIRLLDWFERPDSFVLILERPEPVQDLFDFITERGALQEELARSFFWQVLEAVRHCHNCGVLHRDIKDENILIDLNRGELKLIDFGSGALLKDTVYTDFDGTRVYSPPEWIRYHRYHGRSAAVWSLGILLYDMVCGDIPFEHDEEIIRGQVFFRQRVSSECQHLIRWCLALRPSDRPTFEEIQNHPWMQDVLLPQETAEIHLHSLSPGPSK

[18] = target: Proto-oncogene tyrosine-protein kinase receptor Ret (Homo sapiens) (UniProt P07949)
Chain of Proto-oncogene tyrosine-protein kinase receptor Ret (Homo sapiens) (P07949 whole entry): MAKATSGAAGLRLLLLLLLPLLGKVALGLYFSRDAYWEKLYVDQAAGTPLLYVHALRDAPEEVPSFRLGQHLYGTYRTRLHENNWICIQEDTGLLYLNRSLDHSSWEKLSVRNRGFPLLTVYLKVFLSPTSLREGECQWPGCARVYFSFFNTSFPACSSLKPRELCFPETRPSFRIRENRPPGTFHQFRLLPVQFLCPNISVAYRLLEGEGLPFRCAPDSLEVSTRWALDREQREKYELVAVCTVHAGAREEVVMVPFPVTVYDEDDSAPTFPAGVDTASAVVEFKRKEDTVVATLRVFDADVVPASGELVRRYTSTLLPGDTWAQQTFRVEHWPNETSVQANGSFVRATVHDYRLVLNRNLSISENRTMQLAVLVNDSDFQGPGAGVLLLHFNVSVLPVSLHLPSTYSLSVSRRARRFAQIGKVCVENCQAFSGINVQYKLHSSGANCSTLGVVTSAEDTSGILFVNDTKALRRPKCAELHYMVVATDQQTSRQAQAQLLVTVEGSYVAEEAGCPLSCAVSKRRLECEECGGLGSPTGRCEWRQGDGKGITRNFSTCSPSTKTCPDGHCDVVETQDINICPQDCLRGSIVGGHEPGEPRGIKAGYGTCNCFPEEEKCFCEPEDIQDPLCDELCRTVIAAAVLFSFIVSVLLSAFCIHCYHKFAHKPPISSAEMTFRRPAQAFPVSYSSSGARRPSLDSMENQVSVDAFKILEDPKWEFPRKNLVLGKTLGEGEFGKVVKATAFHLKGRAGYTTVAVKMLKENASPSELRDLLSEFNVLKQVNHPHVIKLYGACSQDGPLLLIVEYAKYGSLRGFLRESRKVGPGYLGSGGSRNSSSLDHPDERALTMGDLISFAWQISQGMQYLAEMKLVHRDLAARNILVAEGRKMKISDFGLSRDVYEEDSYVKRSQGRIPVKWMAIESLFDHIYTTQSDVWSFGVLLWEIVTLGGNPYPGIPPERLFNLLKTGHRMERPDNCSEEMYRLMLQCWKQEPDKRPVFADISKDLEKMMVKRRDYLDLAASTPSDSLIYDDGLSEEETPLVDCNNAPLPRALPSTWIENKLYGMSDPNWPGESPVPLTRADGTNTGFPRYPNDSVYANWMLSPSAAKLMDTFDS

[19] = target: Ribosomal protein S6 kinase alpha-3 (Homo sapiens) (UniProt P51812)
[20] = target: T4, Aurora kinase A (Homo sapiens) (UniProt O14965)
T4 sequence (whole entry): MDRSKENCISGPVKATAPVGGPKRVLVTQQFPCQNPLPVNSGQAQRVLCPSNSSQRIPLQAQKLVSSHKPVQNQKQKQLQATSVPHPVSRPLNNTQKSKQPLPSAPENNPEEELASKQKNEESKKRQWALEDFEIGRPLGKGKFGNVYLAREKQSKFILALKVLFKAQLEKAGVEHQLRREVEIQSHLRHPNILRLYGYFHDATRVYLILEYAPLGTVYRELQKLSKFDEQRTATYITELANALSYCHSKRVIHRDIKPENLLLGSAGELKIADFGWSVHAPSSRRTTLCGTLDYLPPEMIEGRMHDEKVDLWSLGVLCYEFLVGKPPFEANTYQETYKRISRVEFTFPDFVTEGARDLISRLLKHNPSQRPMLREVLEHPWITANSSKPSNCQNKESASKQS

[21] = target: Angiopoietin-1 receptor (Homo sapiens) (UniProt Q02763)
Chain of Angiopoietin-1 receptor (Homo sapiens) (Q02763 whole entry): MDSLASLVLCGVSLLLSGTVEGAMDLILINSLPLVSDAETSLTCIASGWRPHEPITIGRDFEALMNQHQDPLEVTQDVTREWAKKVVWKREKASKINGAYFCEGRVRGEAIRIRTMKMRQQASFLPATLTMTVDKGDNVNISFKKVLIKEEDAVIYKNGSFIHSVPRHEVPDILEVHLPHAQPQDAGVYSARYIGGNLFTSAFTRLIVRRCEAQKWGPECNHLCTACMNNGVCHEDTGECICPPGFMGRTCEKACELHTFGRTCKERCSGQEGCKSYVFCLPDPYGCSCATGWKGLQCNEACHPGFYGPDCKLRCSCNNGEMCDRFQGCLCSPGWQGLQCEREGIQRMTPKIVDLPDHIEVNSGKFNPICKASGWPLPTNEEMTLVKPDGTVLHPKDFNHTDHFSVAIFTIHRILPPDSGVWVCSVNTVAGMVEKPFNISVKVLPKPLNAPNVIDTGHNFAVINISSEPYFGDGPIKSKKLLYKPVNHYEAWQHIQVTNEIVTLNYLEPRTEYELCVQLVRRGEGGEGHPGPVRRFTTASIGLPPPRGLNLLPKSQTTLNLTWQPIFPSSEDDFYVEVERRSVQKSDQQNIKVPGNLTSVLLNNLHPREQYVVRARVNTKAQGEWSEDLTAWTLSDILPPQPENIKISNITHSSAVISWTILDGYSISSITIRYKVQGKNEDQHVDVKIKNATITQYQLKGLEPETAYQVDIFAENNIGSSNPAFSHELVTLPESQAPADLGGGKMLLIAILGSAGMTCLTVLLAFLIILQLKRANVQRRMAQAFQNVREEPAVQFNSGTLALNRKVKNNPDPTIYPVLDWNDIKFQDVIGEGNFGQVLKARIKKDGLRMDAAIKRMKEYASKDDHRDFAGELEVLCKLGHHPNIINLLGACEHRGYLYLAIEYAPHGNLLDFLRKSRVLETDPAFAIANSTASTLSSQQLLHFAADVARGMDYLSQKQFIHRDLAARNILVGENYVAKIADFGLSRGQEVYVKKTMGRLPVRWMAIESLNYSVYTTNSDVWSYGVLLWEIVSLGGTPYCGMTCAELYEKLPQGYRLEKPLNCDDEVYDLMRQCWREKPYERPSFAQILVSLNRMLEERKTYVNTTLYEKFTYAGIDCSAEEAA

Cn1nc(C(=O)NCc2ccc(C(=O)O)cc2)cc1-c1ccc2[nH]ccc2c1 [BI 4395]
inactive: inhibition [1] 22.7% | inhibition [2] -8.91%

CCOC(=O)c1cc2cc(-c3cc(C(=O)NCc4ccc(C(=O)O)cc4)nn3C)ccc2[nH]1 [BI 4394]
active: residual activity [6] 24% | residual activity [8] 28% | residual activity [13] 6% | residual activity [15] 43% | residual activity [17] 14% | residual activity [19] 5% | residual activity [20] -1%
inactive: inhibition [3] -6.15% | inhibition [4] 12.3% | residual activity [5] 100% | residual activity [7] 94% | residual activity [9] 78% | residual activity [10] 121% | residual activity [11] 77% | residual activity [12] 84% | residual activity [14] 87% | residual activity [16] 133% | residual activity [18] 64% | residual activity [21] 85%
